Test results: patent US10849985B2, “Method of targeting senescent cells” (Yeda Research and Development Co. Ltd., priority 2015, dated 2020)

Key:
[1] = test system: cell surface Grp94; experiment: Cell-surface Grp94 of mouse embryonic fibroblasts; format: cell-based; conditions: MEFs 14 days after Etoposide treatment compared to growing MEFs
Procedure: FIGS. 4A-E. Extracellular Grp94 on senescent cells mediate cytotoxicity of innate components in-vitro. (A) Western blot analysis for Grp94/β-Tubulin in Etoposide-treated IMR90 cells 4 days after transfection with siControl or siHSP90B1 (HSP90B1 is a gene coding for Grp94). (B) PrestoBlue viability assay for Etoposide-treated IMR90 4 days after Transfection with siControl or siHSP90B1. (C) Cytotoxicity of NK92 cells in cultures of IMR90 cells treated with siControl or siHSP90B1. NK92 were added for 1 hour at a ratio of 1:3 (D) Crystal Violet staining for IMR90 cells after co-culturing with MM6 monocytes in the presence of GPM1. (E) Quantitative analysis of cell-surface Grp94 of Mouse embryonic fibroblasts (MEFs) 14 days after Etoposide treatment compared to growing MEFs.
The levels of cell surface Grp94 were also examined in mouse embryonic fibroblast cells (MEFs). […] The relatively high correlation between localization of Grp94 in human and mouse cells implies that it may serve as a new marker for senescent cells.

[2] = target: T1, cell-surface Grp94 (Homo sapiens, UniProt P14625); experiment: Flow cytometry of cell-surface Grp94 on live IMR90 cells; format: cell-based; conditions: 3 days after etoposide treatment
T1 construct: cell-surface Grp94 of live senescent etoposide-treated IMR90 cells after 24 hrs treatment with 10 or 100 μM GPM1; endogenous in cells; host or cells: IMR-90 human fibroblasts (ATCC), made senescent with etoposide
Text: FIGS. 3A-F. Grp94 translocates to cell-surface of senescent cells. (A) Flow cytometry histogram for the frequency cell-surface Grp94 of live IMR90 cells 0, 3, 7, 14, or 21 days after etoposide treatment. (B) Quantitative analysis of cell-surface Grp94 on live IMR90 cells 0, 3, 7, 14, or 21 days after etoposide treatment. (C) Scheme describing the mechanism of GPM1-mediated blockage of Grp94 translocation to cell-surface. (D) PrestoBlue viability assay for IMR90 growing or senescent Etoposide-treated cells after 24 hrs treatment with 1, 10, or 100 μM GPM1. […] (E) Flow cytometry histogram for the frequency of cell-surface Grp94 of live senescent etoposide-treated IMR90 cells after 24 hrs treatment with 10 or 100 μM GPM1. (F) Quantitative analysis of cell-surface Grp94 on live senescent etoposide-treated IMR90 cells after 24 hrs treatment with 10 or 100 μM GPM1.
IMR-90 cells were gently dissociated from plates using TripLE express reagent (12604-013, Thermo Fisher Scientific), and maintained in cold FACS buffer (PBS containing 1% FCS and 0.1% Sodium Azid) throughout all procedure. […] Cells were analyzed in a SORP-LSRII instrument (BD Biosciences). […] Cells were gated by their size (FSC/SSC), DAPI negative (live cells) and then analyzed for their fluorescence intensity at the wavelength of 647 (cell-surface Grp94 level), using FlowJo v10 software.

T1 sequence (P14625 22-803): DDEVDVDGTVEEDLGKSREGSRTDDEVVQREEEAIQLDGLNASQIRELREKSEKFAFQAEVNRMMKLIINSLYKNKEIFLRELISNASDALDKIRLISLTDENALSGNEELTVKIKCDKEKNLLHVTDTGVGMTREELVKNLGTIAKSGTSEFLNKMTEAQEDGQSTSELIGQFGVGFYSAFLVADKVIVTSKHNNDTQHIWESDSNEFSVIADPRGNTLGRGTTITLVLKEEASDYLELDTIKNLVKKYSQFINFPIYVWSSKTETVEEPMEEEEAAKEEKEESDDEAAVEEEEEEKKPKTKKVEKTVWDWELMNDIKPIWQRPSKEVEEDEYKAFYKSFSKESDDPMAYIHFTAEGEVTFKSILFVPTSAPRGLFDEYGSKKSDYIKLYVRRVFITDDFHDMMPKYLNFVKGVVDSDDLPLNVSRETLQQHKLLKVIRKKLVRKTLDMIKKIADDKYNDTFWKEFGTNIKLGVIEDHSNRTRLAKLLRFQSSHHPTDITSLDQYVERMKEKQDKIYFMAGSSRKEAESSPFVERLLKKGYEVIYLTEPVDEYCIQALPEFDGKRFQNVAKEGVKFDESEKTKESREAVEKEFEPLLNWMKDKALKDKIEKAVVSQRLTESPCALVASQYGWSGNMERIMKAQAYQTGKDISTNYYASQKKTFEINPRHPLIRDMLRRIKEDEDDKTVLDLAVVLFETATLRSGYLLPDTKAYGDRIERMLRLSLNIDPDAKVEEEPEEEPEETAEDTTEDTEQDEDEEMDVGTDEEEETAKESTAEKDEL

cell-surface Grp94 levels [2]: not elevated
SMILES: COc1cc([C@@H]2c3cc4c(cc3[C@@H](O[C@@H]3O[C@@H]5CO[C@@H](C)O[C@H]5[C@H](O)[C@H]3O)[C@H]3COC(=O)[C@H]23)OCO4)cc(OC)c1O [etoposide]
cell surface Grp94 [1]: significant elevation
